# Results reported in ChEMBL document CHEMBL5120927, “LEGO-Lipophosphonoxins: A Novel Approach in Designing Membrane Targeting Antimicrobials” (J Med Chem, 2022).
# System: Escherichia coli
# Assay: Antibacterial activity against multidrug-resistant Escherichia coli CE5556 expressing CTX-M-15 assessed as reduction in microbial growth incubated for 24 hrs by microdilution assay
# Type: functional
# Conditions: not given
row,SMILES,MIC [µg/mL]
1,CCCCCCOP(=O)(CCN(CCCN)CCCN)OCCCCCCOP(=O)(CCN(CCCN)CCCN)OCCCCCC.Cl.Cl.Cl.Cl.Cl.Cl (stereo unspecified),128
2,Cl.Cl.Cl.Cl.Cl.Cl.NCCN(CCN)CCP(=O)(OCCCCCCOP(=O)(CCN(CCN)CCN)OCCc1ccccc1)OCCc1ccccc1 (stereo unspecified),> 128

# System: Pseudomonas aeruginosa
# Assay: Antibacterial activity against multidrug-resistant Pseudomonas aeruginosa assessed as reduction in microbial growth incubated for 24 hrs by microdilution assay
# Type: functional
# Conditions: not given
row,SMILES,MIC [µg/mL]
1,CCCCCCOP(=O)(CCN(CCCN)CCCN)OCCCCCCOP(=O)(CCN(CCCN)CCCN)OCCCCCC.Cl.Cl.Cl.Cl.Cl.Cl (stereo unspecified),> 128
2,Cl.Cl.Cl.Cl.Cl.Cl.NCCN(CCN)CCP(=O)(OCCCCCCOP(=O)(CCN(CCN)CCN)OCCc1ccccc1)OCCc1ccccc1 (stereo unspecified),> 128

# System: Staphylococcus aureus
# Assay: Antibacterial activity against Staphylococcus aureus ATCC 29213 = CCM 4223 assessed as inhibition of bacterial growth incubated for 24 hrs in presence of BSA by microdilution assay
# Type: functional
# Conditions: not given
row,SMILES,MIC [µg/mL]
1,CCCCCCOP(=O)(CCN(CCCN)CCCN)OCCCCCCOP(=O)(CCN(CCCN)CCCN)OCCCCCC.Cl.Cl.Cl.Cl.Cl.Cl (stereo unspecified),16
2,Cl.Cl.Cl.Cl.Cl.Cl.NCCN(CCN)CCP(=O)(OCCCCCCOP(=O)(CCN(CCN)CCN)OCCc1ccccc1)OCCc1ccccc1 (stereo unspecified),128

# System: Enterococcus faecium
# Assay: Antibacterial activity against vancomycin resistant Enterococcus faecium 419/ANA assessed as reduction in microbial growth incubated for 24 hrs by microdilution assay
# Type: functional
# Conditions: not given
row,SMILES,MIC [µg/mL]
1,CCCCCCOP(=O)(CCN(CCCN)CCCN)OCCCCCCOP(=O)(CCN(CCCN)CCCN)OCCCCCC.Cl.Cl.Cl.Cl.Cl.Cl (stereo unspecified),> 128
2,Cl.Cl.Cl.Cl.Cl.Cl.NCCN(CCN)CCP(=O)(OCCCCCCOP(=O)(CCN(CCN)CCN)OCCc1ccccc1)OCCc1ccccc1 (stereo unspecified),> 128

# System: Escherichia coli
# Assay: Antibacterial activity against Escherichia coli ATCC 25922 = CCM 3954 assessed as inhibition of bacterial growth incubated for 24 hrs by microdilution assay
# Type: functional
# Conditions: not given
row,SMILES,MIC [µg/mL]
1,CCCCCCOP(=O)(CCN(CCCN)CCCN)OCCCCCCOP(=O)(CCN(CCCN)CCCN)OCCCCCC.Cl.Cl.Cl.Cl.Cl.Cl (stereo unspecified),32
2,Cl.Cl.Cl.Cl.Cl.Cl.NCCN(CCN)CCP(=O)(OCCCCCCOP(=O)(CCN(CCN)CCN)OCCc1ccccc1)OCCc1ccccc1 (stereo unspecified),> 128

# System: Pseudomonas aeruginosa
# Assay: Antibacterial activity against Pseudomonas aeruginosa ATCC 27853 = CCM 3955 assessed as inhibition of bacterial growth incubated for 24 hrs by microdilution assay
# Type: functional
# Conditions: not given
row,SMILES,MIC [µg/mL]
1,CCCCCCOP(=O)(CCN(CCCN)CCCN)OCCCCCCOP(=O)(CCN(CCCN)CCCN)OCCCCCC.Cl.Cl.Cl.Cl.Cl.Cl (stereo unspecified),> 128
2,Cl.Cl.Cl.Cl.Cl.Cl.NCCN(CCN)CCP(=O)(OCCCCCCOP(=O)(CCN(CCN)CCN)OCCc1ccccc1)OCCc1ccccc1 (stereo unspecified),> 128

# System: Staphylococcus aureus
# Assay: Antibacterial activity against Staphylococcus aureus ATCC 29213 = CCM 4223 assessed as inhibition of bacterial growth incubated for 24 hrs by microdilution assay
# Type: functional
# Conditions: not given
row,SMILES,MIC [µg/mL]
1,CCCCCCOP(=O)(CCN(CCCN)CCCN)OCCCCCCOP(=O)(CCN(CCCN)CCCN)OCCCCCC.Cl.Cl.Cl.Cl.Cl.Cl (stereo unspecified),8
2,Cl.Cl.Cl.Cl.Cl.Cl.NCCN(CCN)CCP(=O)(OCCCCCCOP(=O)(CCN(CCN)CCN)OCCc1ccccc1)OCCc1ccccc1 (stereo unspecified),32

# System: not listed separately
# Assay: Gradient chromatographic hydrophobicity index of the compound at pH 3.7 by HPLC analysis
# Type: ADME
# Conditions: not given
row,SMILES,CHI
1,CCCCCCOP(=O)(CCN(CCCN)CCCN)OCCCCCCOP(=O)(CCN(CCCN)CCCN)OCCCCCC.Cl.Cl.Cl.Cl.Cl.Cl (stereo unspecified),28.7
2,Cl.Cl.Cl.Cl.Cl.Cl.NCCN(CCN)CCP(=O)(OCCCCCCOP(=O)(CCN(CCN)CCN)OCCc1ccccc1)OCCc1ccccc1 (stereo unspecified),30.9

# System: Staphylococcus epidermidis
# Assay: Antibacterial activity against Staphylococcus epidermidis CCM 7221 assessed as inhibition of bacterial growth incubated for 24 hrs by microdilution assay
# Type: functional
# Conditions: not given
row,SMILES,MIC [µg/mL]
1,CCCCCCOP(=O)(CCN(CCCN)CCCN)OCCCCCCOP(=O)(CCN(CCCN)CCCN)OCCCCCC.Cl.Cl.Cl.Cl.Cl.Cl (stereo unspecified),4
2,Cl.Cl.Cl.Cl.Cl.Cl.NCCN(CCN)CCP(=O)(OCCCCCCOP(=O)(CCN(CCN)CCN)OCCc1ccccc1)OCCc1ccccc1 (stereo unspecified),16

# System: Staphylococcus aureus
# Assay: Antibacterial activity against methicillin resistant Staphylococcus aureus 4591/A assessed as reduction in microbial growth incubated for 24 hrs by microdilution assay
# Type: functional
# Conditions: not given
row,SMILES,MIC [µg/mL]
1,CCCCCCOP(=O)(CCN(CCCN)CCCN)OCCCCCCOP(=O)(CCN(CCCN)CCCN)OCCCCCC.Cl.Cl.Cl.Cl.Cl.Cl (stereo unspecified),16
2,Cl.Cl.Cl.Cl.Cl.Cl.NCCN(CCN)CCP(=O)(OCCCCCCOP(=O)(CCN(CCN)CCN)OCCc1ccccc1)OCCc1ccccc1 (stereo unspecified),64

# System: Escherichia coli
# Assay: Antibacterial activity against Escherichia coli ATCC 25922 = CCM 3954 assessed as inhibition of bacterial growth incubated for 24 hrs in presence of BSA by microdilution assay
# Type: functional
# Conditions: not given
row,SMILES,MIC [µg/mL]
1,CCCCCCOP(=O)(CCN(CCCN)CCCN)OCCCCCCOP(=O)(CCN(CCCN)CCCN)OCCCCCC.Cl.Cl.Cl.Cl.Cl.Cl (stereo unspecified),64
2,Cl.Cl.Cl.Cl.Cl.Cl.NCCN(CCN)CCP(=O)(OCCCCCCOP(=O)(CCN(CCN)CCN)OCCc1ccccc1)OCCc1ccccc1 (stereo unspecified),> 128

# System: Enterococcus faecalis
# Assay: Antibacterial activity against Enterococcus faecalis ATCC 29212 = CCM 4224 assessed as inhibition of bacterial growth incubated for 24 hrs by microdilution assay
# Type: functional
# Conditions: not given
row,SMILES,MIC [µg/mL]
1,CCCCCCOP(=O)(CCN(CCCN)CCCN)OCCCCCCOP(=O)(CCN(CCCN)CCCN)OCCCCCC.Cl.Cl.Cl.Cl.Cl.Cl (stereo unspecified),> 128
2,Cl.Cl.Cl.Cl.Cl.Cl.NCCN(CCN)CCP(=O)(OCCCCCCOP(=O)(CCN(CCN)CCN)OCCc1ccccc1)OCCc1ccccc1 (stereo unspecified),> 128

# System: not listed separately
# Assay: Hemolytic activity in human RBC assessed as haemoglobin release measured after 3 hr
# Type: toxicity, cell-based, Erythrocyte
# Conditions: red blood cells (erythrocytes)
row,SMILES,HC50 at 3 h [µg/mL]
1,CCCCCCOP(=O)(CCN(CCCN)CCCN)OCCCCCCOP(=O)(CCN(CCCN)CCCN)OCCCCCC.Cl.Cl.Cl.Cl.Cl.Cl (stereo unspecified),634
2,Cl.Cl.Cl.Cl.Cl.Cl.NCCN(CCN)CCP(=O)(OCCCCCCOP(=O)(CCN(CCN)CCN)OCCc1ccccc1)OCCc1ccccc1 (stereo unspecified),> 200
